Reference: patent US20040009599A1, “Antisense modulation of cellular inhibitor of apoptosis-1 expression” (priority 1998, published 2004)
Strand notation (5' to 3'): a small letter for the sugar, then the base; units joined by * are phosphorothioate-linked, units joined directly phosphodiester-linked; [ ] holds rarer units or linkages, { } end groups; capitals alone tell only the bases. d = 2'-deoxy (DNA)

Each substance was assayed on human Cellular Inhibitor of Apoptosis-1 RNA (assay: Inhibition of Cellular Inhibitor of Apoptosis-1 mRNA levels by quantitative real-time PCR after oligonucleotide treatment of cells). Settings: phosphorothioate oligodeoxynucleotides; oligonucleotide at final concentration of 150 nM with LIPOFECTIN; real-time PCR; averages from three experiments.
Type: cell-based
Protocol: Cells were harvested 16 hours after oligonucleotide treatment.
Poly(A)+ mRNA was isolated according to Miura et al., Clin. Chem., 1996, 42, 1758-1764. Other methods for poly(A)+ mRNA isolation are taught in, for example, Ausubel, F. M. et al., Current Protocols in Molecular Biology, Volume 1, pp. 4.5.1-4.5.3, John Wiley & Sons, Inc., 1993. […] 60 μL lysis buffer (10 mM Tris-HCl, pH 7.6, 1 mM EDTA, 0.5 M NaCl, 0.5% NP-40, 20 mM vanadyl-ribonucleoside complex) was added to each well, the plate was gently agitated and then incubated at room temperature for five minutes. 55 μL of lysate was transferred to Oligo d(T) coated 96-well plates (AGCT Inc., Irvine Calif.). Plates were incubated for 60 minutes at room temperature, washed 3 times with 200 μL of wash buffer (10 mM Tris-HCl pH 7.6, 1 mM EDTA, 0.3 M NaCl). After the final wash, the plate was blotted on paper towels to remove excess wash buffer and then air-dried for 5 minutes. 60 μL of elution buffer (5 mM Tris-HCl pH 7.6), preheated to 70° C. was added to each well, the plate was incubated on a 90° C. hot plate for 5 minutes, and the eluate was then transferred to a fresh 96-well plate.
Cellular Inhibitor of Apoptosis-1 probes and primers were designed to hybridize to the human Cellular Inhibitor of Apoptosis-1 sequence, using published sequence information (GenBank accession number U37547, incorporated herein as SEQ ID NO:1).
For Cellular Inhibitor of Apoptosis-1 the PCR primers were: […]
Target sites are indicated by nucleotide numbers, as given in the sequence source reference (Genbank accession no. U37547), to which the oligonucleotide binds. All compounds in Table 1 are oligodeoxynucleotides with phosphorothioate backbones (internucleoside linkages) throughout. […] Data are averages from three experiments. If present, “N.D.” indicates “no data”.

Going from “ISIS 23332: phosphorothioate oligodeoxynucleotide aaattacactccatagaa, 5′ UTR target site 4 (antisense dA*dA*dA*dT*dT*dA*dC*dA*dC*dT*dC*dC*dA*dT*dA*dG*dA*dA)” to “ISIS 23333: phosphorothioate oligodeoxynucleotide aatcaactctactagcct, 5′ UTR target site 68 (antisense dA*dA*dT*dC*dA*dA*dC*dT*dC*dT*dA*dC*dT*dA*dG*dC*dC*dT)”, the “% Inhibition of Cellular Inhibitor of Apoptosis-1 mRNA levels” value (shortened to “% Inhibition”) rises from 0% to 47%.

“ISIS 23334: phosphorothioate oligodeoxynucleotide ctagtgttatcagaaacg, 5′ UTR target site 139 (antisense dC*dT*dA*dG*dT*dG*dT*dT*dA*dT*dC*dA*dG*dA*dA*dA*dC*dG)” and “ISIS 23335: phosphorothioate oligodeoxynucleotide ttaaggactattcagcta, 5′ UTR target site 216 (antisense dT*dT*dA*dA*dG*dG*dA*dC*dT*dA*dT*dT*dC*dA*dG*dC*dT*dA)” are the same in “% Inhibition” value: 0% for the first, 0% for the second.

“ISIS 23336: phosphorothioate oligodeoxynucleotide ttagttagccataaaatt, 5′ UTR target site 287 (antisense dT*dT*dA*dG*dT*dT*dA*dG*dC*dC*dA*dT*dA*dA*dA*dA*dT*dT)” and “ISIS 23337: phosphorothioate oligodeoxynucleotide actttcttcctaactttg, 5′ UTR target site 352 (antisense dA*dC*dT*dT*dT*dC*dT*dT*dC*dC*dT*dA*dA*dC*dT*dT*dT*dG)” are the same in “% Inhibition” value: 0% for the first, 0% for the second.

“ISIS 23338: phosphorothioate oligodeoxynucleotide ttggcttaaagttcaaaa, 5′ UTR target site 435 (antisense dT*dT*dG*dG*dC*dT*dT*dA*dA*dA*dG*dT*dT*dC*dA*dA*dA*dA)” and “ISIS 23339: phosphorothioate oligodeoxynucleotide aagtcaatacccacaagc, 5′ UTR target site 497 (antisense dA*dA*dG*dT*dC*dA*dA*dT*dA*dC*dC*dC*dA*dC*dA*dA*dG*dC)” are the same in “% Inhibition” value: 0% for the first, 0% for the second.

Going from “ISIS 23340: phosphorothioate oligodeoxynucleotide aaaagctaagttcacaca, 5′ UTR target site 576 (antisense dA*dA*dA*dA*dG*dC*dT*dA*dA*dG*dT*dT*dC*dA*dC*dA*dC*dA)” to “ISIS 23341: phosphorothioate oligodeoxynucleotide aagcactttaacatgaca, 5′ UTR target site 661 (antisense dA*dA*dG*dC*dA*dC*dT*dT*dT*dA*dA*dC*dA*dT*dG*dA*dC*dA)”, the “% Inhibition” value rises from 0% to 15%.

First: ISIS 23342: phosphorothioate oligodeoxynucleotide tatatgcaggcttctttc, 5′ UTR target site 684 (antisense dT*dA*dT*dA*dT*dG*dC*dA*dG*dG*dC*dT*dT*dC*dT*dT*dT*dC)
Second: ISIS 23343: phosphorothioate oligodeoxynucleotide ataacagaccaattactg, 5′ UTR target site 724 (antisense dA*dT*dA*dA*dC*dA*dG*dA*dC*dC*dA*dA*dT*dT*dA*dC*dT*dG)
The “% Inhibition” value of the first is higher: 23% for the first, 0% for the second.

“ISIS 23344: phosphorothioate oligodeoxynucleotide tgccttttatttatattt, 5′ UTR target site 764 (antisense dT*dG*dC*dC*dT*dT*dT*dT*dA*dT*dT*dT*dA*dT*dA*dT*dT*dT)” and “ISIS 23345: phosphorothioate oligodeoxynucleotide aggtggatgcacttctga, 5′ UTR target site 858 (antisense dA*dG*dG*dT*dG*dG*dA*dT*dG*dC*dA*dC*dT*dT*dC*dT*dG*dA)” are the same in “% Inhibition” value: 0% for the first, 0% for the second.

Going from “ISIS 23346: phosphorothioate oligodeoxynucleotide ggtaacctaagtgctatt, 5′ UTR target site 915 (antisense dG*dG*dT*dA*dA*dC*dC*dT*dA*dA*dG*dT*dG*dC*dT*dA*dT*dT)” to “ISIS 23347: phosphorothioate oligodeoxynucleotide tcaggtaggatgagtatc, 5′ UTR target site 994 (antisense dT*dC*dA*dG*dG*dT*dA*dG*dG*dA*dT*dG*dA*dG*dT*dA*dT*dC)”, the “% Inhibition” value rises from 0% to 11%.

“ISIS 23348: phosphorothioate oligodeoxynucleotide tttcttcacatgaactaa, 5′ UTR target site 1097 (antisense dT*dT*dT*dC*dT*dT*dC*dA*dC*dA*dT*dG*dA*dA*dC*dT*dA*dA)” and “ISIS 23349: phosphorothioate oligodeoxynucleotide acctgggaaaagtctttg, Coding target site 1178 (antisense dA*dC*dC*dT*dG*dG*dG*dA*dA*dA*dA*dG*dT*dC*dT*dT*dT*dG)” are the same in “% Inhibition” value: 0% for the first, 0% for the second.

“ISIS 23350: phosphorothioate oligodeoxynucleotide caatctgacaagatcgtg, Coding target site 1234 (antisense dC*dA*dA*dT*dC*dT*dG*dA*dC*dA*dA*dG*dA*dT*dC*dG*dT*dG)” and “ISIS 23351: phosphorothioate oligodeoxynucleotide tagagttcacaggaaaag, Coding target site 1285 (antisense dT*dA*dG*dA*dG*dT*dT*dC*dA*dC*dA*dG*dG*dA*dA*dA*dA*dG)” are the same in “% Inhibition” value: 0% for the first, 0% for the second.

Going from “ISIS 23352: phosphorothioate oligodeoxynucleotide ccagattctgaataaagc, Coding target site 1491 (antisense dC*dC*dA*dG*dA*dT*dT*dC*dT*dG*dA*dA*dT*dA*dA*dA*dG*dC)” to “ISIS 23353: phosphorothioate oligodeoxynucleotide tttctcattggagacgta, Coding target site 1540 (antisense dT*dT*dT*dC*dT*dC*dA*dT*dT*dG*dG*dA*dG*dA*dC*dG*dT*dA)”, the “% Inhibition” value rises from 0% to 32%.

First: ISIS 23354: phosphorothioate oligodeoxynucleotide ccaaggtgggagataatg, Coding target site 1572 (antisense dC*dC*dA*dA*dG*dG*dT*dG*dG*dG*dA*dG*dA*dT*dA*dA*dT*dG)
Second: ISIS 23355: phosphorothioate oligodeoxynucleotide gagtaagaaccactgaac, Coding target site 1603 (antisense dG*dA*dG*dT*dA*dA*dG*dA*dA*dC*dC*dA*dC*dT*dG*dA*dA*dC)
The “% Inhibition” value of the first is higher: 3% for the first, 0% for the second.

For “ISIS 23356: phosphorothioate oligodeoxynucleotide tagaattaagagggtttg, Coding target site 1632 (antisense dT*dA*dG*dA*dA*dT*dT*dA*dA*dG*dA*dG*dG*dG*dT*dT*dT*dG)”, the “% Inhibition” value was 0%.

Same assay, conditions: summary of Table 1; real-time PCR of mRNA levels

For “ISIS 23333: phosphorothioate oligodeoxynucleotide aatcaactctactagcct, 5′ UTR target site 68 (antisense dA*dA*dT*dC*dA*dA*dC*dT*dC*dT*dA*dC*dT*dA*dG*dC*dC*dT)”, the “inhibition of Cellular Inhibitor of Apoptosis-1 expression” value (“inhibition … of Apoptosis-1 expression” below) was “at least 20%”.
With “ISIS 23342: phosphorothioate oligodeoxynucleotide tatatgcaggcttctttc, 5′ UTR target site 684 (antisense dT*dA*dT*dA*dT*dG*dC*dA*dG*dG*dC*dT*dT*dC*dT*dT*dT*dC)” the “inhibition … of Apoptosis-1 expression” value was “at least 20%”.
“ISIS 23353: phosphorothioate oligodeoxynucleotide tttctcattggagacgta, Coding target site 1540 (antisense dT*dT*dT*dC*dT*dC*dA*dT*dT*dG*dG*dA*dG*dA*dC*dG*dT*dA)” was tested, and the “inhibition … of Apoptosis-1 expression” value was “at least 20%”.
